One test addresses T1, DGAT1 enzyme (Homo sapiens, UniProt O75907).
T1 construct: made in house
T1 sequence (O75907 1-488): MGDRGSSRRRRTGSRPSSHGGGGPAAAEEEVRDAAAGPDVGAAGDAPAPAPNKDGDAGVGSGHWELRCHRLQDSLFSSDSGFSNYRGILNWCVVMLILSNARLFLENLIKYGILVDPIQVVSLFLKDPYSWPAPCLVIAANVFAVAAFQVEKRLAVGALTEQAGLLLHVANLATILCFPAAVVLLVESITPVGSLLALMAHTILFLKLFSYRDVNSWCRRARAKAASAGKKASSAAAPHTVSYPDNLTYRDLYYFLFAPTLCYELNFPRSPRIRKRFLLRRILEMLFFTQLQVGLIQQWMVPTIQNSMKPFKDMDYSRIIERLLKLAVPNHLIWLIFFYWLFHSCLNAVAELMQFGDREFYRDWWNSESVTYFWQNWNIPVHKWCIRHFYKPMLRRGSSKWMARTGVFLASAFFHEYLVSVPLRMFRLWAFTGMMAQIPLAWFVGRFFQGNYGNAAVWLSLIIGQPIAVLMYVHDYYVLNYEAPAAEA
Description: DGAT1 inhibitory activity test. In kind it is biochemical. The following applies: test compound concentration of 0.05 μg/ml; read-out: Inhibitory Rate. In a few lines: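 Reaction at 23° C for 30 min in 175 mM Tris-HCl pH 8.0, 8 mM MgCl2, 1 mg/ml BSA, 0.5% Triton X-100 with 0.3 mM 1,2-dioleoyl-sn-glycerol and 10 μM [14C]-oleoyl-CoA. Triglyceride extracted into heptane, separated by TLC, radioactivity quantified; % inhibition versus vehicle control, 0-min background subtracted.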

Another test deals with Male C57BL/6N mice. Put plainly: Triglyceride absorption suppression after fat loading (in vivo DGAT1 inhibitory effect). The settings on record: Mus musculus, po; dose of 10 mg/kg or lower, orally administered, mice fasted overnight, plasma triglyceride after fat loading; read-out: Triglyceride absorption suppressive activity. In a few lines:
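Overnight-fasted male C57BL/6N mice dosed orally with compound (1 to 10 mg/kg in 0.5% methylcellulose), then given Pluronic-F127 1 g/kg i.p. and an oral 20% Intralipid load. Plasma triglyceride measured 1 to 4 h later. Absorption suppression (%) calculated against water-loaded and fat-loaded vehicle groups.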

SMILES strings stand for the structures.

The values that follow come from patent publication US8735425B2, “Tetrahydroisoquinoline derivative” (Daiichi Sankyo Company, Limited, priority 2008, dated 2014).

In the case of `O=C(O)C[C@H]1CC[C@H](OC(=O)N2CCc3cc(NC(=O)Nc4ccc(C(F)(F)F)cc4)ccc3C2)CC1` [Example 69, trans-6-[3-(4-trifluoromethyl-phenyl)-ureido]-3,4-dihydro-1H-isoquinoline-2-carboxylic acid 4-carboxymethyl-cyclohexyl ester], the inhibition at 0.05 µg/mL at DGAT1 enzyme is no less than 50%. Also, in the test with Male C57BL/6N mice, the inhibition in vivo at up to 10 mg/kg was no less than 60%.
In the same order, the values of `CCc1cccc(NC(=O)Nc2ccc3c(c2)CCN(C(=O)O[C@H]2CC[C@H](CC(=O)O)CC2)C3)c1` [Example 70, trans-6-[3-(3-ethyl-phenyl)-ureido]-3,4-dihydro-1H-isoquinoline-2-carboxylic acid 4-carboxymethyl-cyclohexyl ester] are no less than 50% and no less than 60%.
The like results for `Cc1ccc(NC(=O)Nc2ccc3c(c2)CCN(C(=O)O[C@H]2CC[C@H](CC(=O)O)CC2)C3)cc1` [Example 71, trans-6-(3-p-tolyl-ureido)-3,4-dihydro-1H-isoquinoline-2-carboxylic acid 4-carboxymethyl-cyclohexyl ester] were, in that order, no less than 50% and no less than 60%.
In the same order, the values of `CC(C)c1ccc(NC(=O)Nc2ccc3c(c2)CCN(C(=O)O[C@H]2CC[C@H](CC(=O)O)CC2)C3)cc1` [Example 72, trans-6-[3-(4-isopropyl-phenyl)-ureido]-3,4-dihydro-1H-isoquinoline-2-carboxylic acid 4-carboxymethyl-cyclohexyl ester] are no less than 50% and no less than 60%.
`CC(C)(C)c1ccc(NC(=O)Nc2ccc3c(c2)CCN(C(=O)O[C@H]2CC[C@H](CC(=O)O)CC2)C3)cc1` [Example 73, trans-6-[3-(4-tert-butyl-phenyl)-ureido]-3,4-dihydro-1H-isoquinoline-2-carboxylic acid 4-carboxymethyl-cyclohexyl ester]: at DGAT1 enzyme, the inhibition at 0.05 µg/mL is no less than 50%. Moreover, the inhibition in vivo at up to 10 mg/kg in the test with Male C57BL/6N mice is no less than 60%.
In the same order, the values of `N#Cc1cccc(NC(=O)Nc2ccc3c(c2)CCN(C(=O)O[C@H]2CC[C@H](CC(=O)O)CC2)C3)c1` [Example 74, trans-6-[3-(3-cyano-phenyl)-ureido]-3,4-dihydro-1H-isoquinoline-2-carboxylic acid 4-carboxymethyl-cyclohexyl ester] are no less than 50% and no less than 60%.
The like results for `CN(C)c1cccc(NC(=O)Nc2ccc3c(c2)CCN(C(=O)O[C@H]2CC[C@H](CC(=O)O)CC2)C3)c1` [Example 75, trans-6-[3-(3-dimethylamino-phenyl)-ureido]-3,4-dihydro-1H-isoquinoline-2-carboxylic acid 4-carboxymethyl-cyclohexyl ester] were, in that order, no less than 50% and no less than 60%.
In the same order, the values of `CC(C)(C)c1cccc(NC(=O)Nc2ccc3c(c2)CCN(C(=O)O[C@H]2CC[C@H](CC(=O)O)CC2)C3)c1` [Example 76, trans-6-[3-(3-tert-butyl-phenyl)-ureido]-3,4-dihydro-1H-isoquinoline-2-carboxylic acid 4-carboxymethyl-cyclohexyl ester] are no less than 50% and no less than 60%.
`Cc1ccccc1NC(=O)Nc1ccc2c(c1)CCN(C(=O)O[C@H]1CC[C@H](CC(=O)O)CC1)C2` [Example 77, trans-6-(3-o-tolyl-ureido)-3,4-dihydro-1H-isoquinoline-2-carboxylic acid 4-carboxymethyl-cyclohexyl ester]: on DGAT1 enzyme, the inhibition at 0.05 µg/mL was no less than 50%. In addition, the inhibition in vivo at up to 10 mg/kg in the test on Male C57BL/6N mice is no less than 60%.
On to `Cc1ccc(NC(=O)Nc2ccc3c(c2)CCN(C(=O)O[C@H]2CC[C@H](CC(=O)O)CC2)C3)cc1C` [Example 78, trans-6-[3-(3,4-dimethyl-phenyl)-ureido]-3,4-dihydro-1H-isoquinoline-2-carboxylic acid 4-carboxymethyl-cyclohexyl ester], for which the inhibition at 0.05 µg/mL on DGAT1 enzyme was no less than 50%. For the same molecule, in the test on Male C57BL/6N mice, the inhibition in vivo at up to 10 mg/kg was no less than 60%.
As for `CCOc1ccc(NC(=O)Nc2ccc3c(c2)CCN(C(=O)O[C@H]2CC[C@H](CC(=O)O)CC2)C3)cc1` [Example 80, trans-6-[3-(4-ethoxy-phenyl)-ureido]-3,4-dihydro-1H-isoquinoline-2-carboxylic acid 4-carboxymethyl-cyclohexyl ester], the inhibition at 0.05 µg/mL at DGAT1 enzyme is no less than 50%. The inhibition in vivo at up to 10 mg/kg in the test with Male C57BL/6N mice is no less than 60%.
On to `CC(C)(C)NC(=O)Nc1ccc2c(c1)CCN(C(=O)O[C@H]1CC[C@H](CC(=O)O)CC1)C2` [Example 82, trans-6-(3-tert-butyl-ureido)-3,4-dihydro-1H-isoquinoline-2-carboxylic acid 4-carboxymethyl-cyclohexyl ester], for which the inhibition at 0.05 µg/mL at DGAT1 enzyme was no less than 50%. Besides, the inhibition in vivo at up to 10 mg/kg in the test on Male C57BL/6N mice is no less than 60%.
As to `O=C(O)C[C@H]1CC[C@H](OC(=O)N2CCc3cc(NC(=O)NC4CCCC4)ccc3C2)CC1` [Example 83, trans-6-(3-cyclopentyl-ureido)-3,4-dihydro-1H-isoquinoline-2-carboxylic acid 4-carboxymethyl-cyclohexyl ester], the inhibition at 0.05 µg/mL on DGAT1 enzyme is no less than 50%. In addition, the inhibition in vivo at up to 10 mg/kg in the test on Male C57BL/6N mice is no less than 60%.
Consider `O=C(O)C[C@H]1CC[C@H](OC(=O)N2CCc3cc(NC(=O)NC4CCCCC4)ccc3C2)CC1` [Example 84, trans-6-(3-cyclohexyl-ureido)-3,4-dihydro-1H-isoquinoline-2-carboxylic acid 4-carboxymethyl-cyclohexyl ester], for which the inhibition at 0.05 µg/mL on DGAT1 enzyme is no less than 50%. Further, in the test with Male C57BL/6N mice, the inhibition in vivo at up to 10 mg/kg was no less than 60%.
Regarding `O=C(O)C[C@H]1CC[C@H](OC(=O)N2CCc3cc(NC(=O)NCC4CCCCC4)ccc3C2)CC1` [Example 85, trans-6-(3-cyclohexylmethyl-ureido)-3,4-dihydro-1H-isoquinoline-2-carboxylic acid 4-carboxymethyl-cyclohexyl ester], at DGAT1 enzyme, the inhibition at 0.05 µg/mL was no less than 50%. Moreover, the inhibition in vivo at up to 10 mg/kg in the test on Male C57BL/6N mice was no less than 60%.
Turning to `O=C(O)C[C@H]1CC[C@H](OC(=O)N2CCc3cc(NC(=O)NC45CC6CC(CC(C6)C4)C5)ccc3C2)CC1` [Example 86, trans-6-(3-adamantan-1-yl-ureido)-3,4-dihydro-1H-isoquinoline-2-carboxylic acid 4-carboxymethyl-cyclohexyl ester], the inhibition at 0.05 µg/mL on DGAT1 enzyme was no less than 50%. Further, the inhibition in vivo at up to 10 mg/kg with Male C57BL/6N mice is no less than 60%.
Consider `Cc1cncc(NC(=O)Nc2ccc3c(c2)CCN(C(=O)O[C@H]2CC[C@H](CC(=O)O)CC2)C3)c1` [Example 90, trans-6-[3-(5-methyl-pyridin-3-yl)-ureido]-3,4-dihydro-1H-isoquinoline-2-carboxylic acid 4-carboxymethyl-cyclohexyl ester], for which the inhibition at 0.05 µg/mL on DGAT1 enzyme is no less than 50%. Further, in the test on Male C57BL/6N mice, the inhibition in vivo at up to 10 mg/kg was no less than 60%.
The like results for `O=C(O)C[C@H]1CC[C@H](OC(=O)N2CCc3cc(NC(=O)Nc4ccc(Cl)cn4)ccc3C2)CC1` [Example 91, trans-6-[3-(5-chloro-pyridin-2-yl)-ureido]-3,4-dihydro-1H-isoquinoline-2-carboxylic acid 4-carboxymethyl-cyclohexyl ester] were, in that order, no less than 50% and no less than 60%.
